Measured values from publication PMC2994389 (2010).

Biological target: T1, PARP-1 (Homo sapiens, UniProt P09874)
T1 construct: gene PARP1
Assay: colorimetric PARP assay kit (Trevigen), biotinylated NAD incorporation
Assay type: biochemical

T1 sequence (P09874 2-1014): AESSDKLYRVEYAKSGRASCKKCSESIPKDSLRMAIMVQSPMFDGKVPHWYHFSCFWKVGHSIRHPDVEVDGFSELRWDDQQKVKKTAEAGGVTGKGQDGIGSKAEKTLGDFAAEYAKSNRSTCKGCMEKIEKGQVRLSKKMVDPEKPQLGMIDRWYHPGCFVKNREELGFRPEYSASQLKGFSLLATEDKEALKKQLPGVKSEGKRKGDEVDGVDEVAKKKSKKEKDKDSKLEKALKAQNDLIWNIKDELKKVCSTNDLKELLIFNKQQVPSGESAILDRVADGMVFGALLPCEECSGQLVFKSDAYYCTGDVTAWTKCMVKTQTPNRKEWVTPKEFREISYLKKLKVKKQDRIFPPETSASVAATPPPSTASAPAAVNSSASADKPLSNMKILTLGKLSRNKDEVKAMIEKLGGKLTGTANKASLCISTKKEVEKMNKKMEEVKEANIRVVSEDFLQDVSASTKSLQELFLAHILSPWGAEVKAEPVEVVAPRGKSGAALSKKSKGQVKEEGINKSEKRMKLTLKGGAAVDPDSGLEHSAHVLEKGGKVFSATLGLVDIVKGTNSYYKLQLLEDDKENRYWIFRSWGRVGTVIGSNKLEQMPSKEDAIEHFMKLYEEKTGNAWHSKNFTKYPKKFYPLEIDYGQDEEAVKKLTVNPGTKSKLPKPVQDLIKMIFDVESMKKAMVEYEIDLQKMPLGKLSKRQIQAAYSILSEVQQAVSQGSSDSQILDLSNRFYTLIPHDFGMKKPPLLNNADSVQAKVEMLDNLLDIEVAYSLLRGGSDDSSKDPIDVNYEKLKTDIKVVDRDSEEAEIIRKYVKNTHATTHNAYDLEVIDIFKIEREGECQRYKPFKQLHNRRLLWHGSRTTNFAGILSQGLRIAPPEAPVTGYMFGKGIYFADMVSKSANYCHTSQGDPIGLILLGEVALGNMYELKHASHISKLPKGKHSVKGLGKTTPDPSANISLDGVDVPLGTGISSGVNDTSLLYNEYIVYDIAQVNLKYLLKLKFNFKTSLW

- IC50: 320 µM
Compound: NCCS(=O)(=O)O [TAU, taurine]
